From patent US20180099931A1 (AbbVie S.à.r.l., priority 2016, published 2018)
Where two headings read alike, the source gives them in different places.

Molecular target: T1, F508delCFTR (Homo sapiens, UniProt P13569, DEL508-508)
T1 construct: expressed in transfected cells; host or cells: CFBE41o- human lung-derived epithelial cells (CFBE4lo-F508delCFTR-HRP), doxycycline-inducible
Experiment: Cell Surface Expression-Horse Radish Peroxidase (CSE-HRP) Assay;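 as to Maximum % activity (with co-corrector): co-corrector and positive control are both the same reference corrector at 2 µM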;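 as to Maximum % activity (without co-corrector): percent of the 2 µM on-plate positive control corrector response above DMSO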
Type: cell-based
Conditions: for Maximum % activity (with co-corrector): with co-corrector (2 μM); for Maximum % activity (with co-corrector) / Emax: maximum at any tested concentration, normalized to on-plate positive control; for Emax: without co-corrector, read-out: Maximum % activity (without co-corrector)

[1] = test compound without co-corrector, read-out: EC50 (without co-corrector)
[2] = with co-corrector (2 μM of 3-[(2R,4R)-4-({[1-(2,2-difluoro-1,3-benzodioxol-5-yl)cyclopropyl]carbonyl}amino)-7-methoxy-3,4-dihydro-2H-chromen-2-yl]benzoic acid), read-out: EC50 (with co-corrector)

T1 sequence (P13569 with tags, fused parts or gaps DEL508-508): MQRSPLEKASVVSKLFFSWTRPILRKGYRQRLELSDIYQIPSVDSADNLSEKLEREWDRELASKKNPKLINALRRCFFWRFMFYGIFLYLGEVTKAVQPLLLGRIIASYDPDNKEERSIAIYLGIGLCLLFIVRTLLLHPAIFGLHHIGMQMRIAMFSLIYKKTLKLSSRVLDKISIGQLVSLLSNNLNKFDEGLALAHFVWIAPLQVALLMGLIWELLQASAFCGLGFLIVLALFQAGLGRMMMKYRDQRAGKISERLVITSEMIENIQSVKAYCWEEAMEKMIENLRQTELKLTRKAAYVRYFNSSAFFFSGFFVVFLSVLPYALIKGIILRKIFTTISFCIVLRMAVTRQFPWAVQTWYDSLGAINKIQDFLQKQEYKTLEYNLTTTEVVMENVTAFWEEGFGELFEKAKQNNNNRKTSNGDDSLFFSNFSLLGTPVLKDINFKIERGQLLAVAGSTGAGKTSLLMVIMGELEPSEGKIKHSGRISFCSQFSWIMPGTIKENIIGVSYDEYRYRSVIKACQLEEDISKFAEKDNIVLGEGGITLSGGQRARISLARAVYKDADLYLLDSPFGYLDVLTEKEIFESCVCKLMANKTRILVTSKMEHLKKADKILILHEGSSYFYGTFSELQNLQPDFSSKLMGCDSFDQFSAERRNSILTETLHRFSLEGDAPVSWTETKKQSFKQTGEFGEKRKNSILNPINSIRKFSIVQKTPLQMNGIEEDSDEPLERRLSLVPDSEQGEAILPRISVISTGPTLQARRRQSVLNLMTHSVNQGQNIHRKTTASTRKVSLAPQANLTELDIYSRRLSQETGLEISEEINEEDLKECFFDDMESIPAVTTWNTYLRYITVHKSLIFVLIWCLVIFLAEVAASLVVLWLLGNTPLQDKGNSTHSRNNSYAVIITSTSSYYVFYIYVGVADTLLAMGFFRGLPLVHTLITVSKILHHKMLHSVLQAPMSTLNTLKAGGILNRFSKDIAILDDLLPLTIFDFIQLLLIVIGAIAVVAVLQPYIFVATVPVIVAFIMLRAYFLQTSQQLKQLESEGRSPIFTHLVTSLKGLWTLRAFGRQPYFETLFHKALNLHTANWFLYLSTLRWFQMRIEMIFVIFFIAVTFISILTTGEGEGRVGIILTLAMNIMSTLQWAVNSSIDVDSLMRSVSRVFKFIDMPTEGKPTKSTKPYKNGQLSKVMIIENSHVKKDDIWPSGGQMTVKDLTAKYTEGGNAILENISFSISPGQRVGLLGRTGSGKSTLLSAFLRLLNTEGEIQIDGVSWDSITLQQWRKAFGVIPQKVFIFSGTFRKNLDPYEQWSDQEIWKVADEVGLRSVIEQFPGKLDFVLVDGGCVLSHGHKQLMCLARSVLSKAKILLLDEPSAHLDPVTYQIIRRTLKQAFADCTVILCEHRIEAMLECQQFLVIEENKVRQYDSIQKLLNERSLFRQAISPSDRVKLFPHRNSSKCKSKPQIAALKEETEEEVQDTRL

| Compound | EC50 [1] | EC50 [2] | Maximum % activity (with co-corrector) | Emax |
| --- | --- | --- | --- | --- |
| COc1ccc(C(C)(C)C)cc1CN[C@H]1[C@H](C(C)(C)C)[C@@H](C(=O)O)N(C(=O)c2ccc(OC3CCCCC3)cc2)[C@H]1c1cccnc1N(C)C [Example I-200] | 1 to 10 µM | < 1 µM | +++ (≥350) | 100 to 200% |
| COc1ccc(C(C)(C)C)cc1CN[C@H]1[C@H](C(C)(C)C)[C@@H](C(=O)O)N(C(=O)C2C3CCCC32)[C@H]1c1cccnc1N(C)C (stereo partly shown) [Example I-201] | 1 to 10 µM | < 1 µM | +++ (≥350) | > 200% |
| COc1ccc(C(C)(C)C)cc1CN[C@H]1[C@H](C23CC(C2)C3)[C@@H](C(=O)O)N(C(=O)C2CCCCC2)[C@H]1c1ccccc1 [Example I-202] | 1 to 10 µM | < 1 µM | +++ (≥350) | > 200% |
| COc1ccc(C(C)(C)C)cc1CN[C@@H]1[C@@H](C(C)(C)C)[C@H](C(=O)NS(C)(=O)=O)N(C(=O)C2CCCCC2)[C@@H]1c1ccccc1 [Example I-203] | 1 to 10 µM | 1 to 10 µM | ++ (≥150 and <350) | < 100% |
| COc1ncc(C2CCC2)cc1CN[C@H]1[C@H](C(C)(C)C)[C@@H](C(=O)O)N(C(=O)C2Cc3ccccc3CO2)[C@H]1c1ccccc1 (stereo partly shown) [Example I-206] | 1 to 10 µM | 1 to 10 µM | +++ (≥350) | 100 to 200% |
| COc1nc(C(C)(C)C)ncc1CN[C@H]1[C@H](C(C)(C)C)[C@@H](C(=O)O)N(C(=O)C2CCCCC2)[C@H]1c1ccccc1 [Example I-207] | 1 to 10 µM | 1 to 10 µM | +++ (≥350) | 100 to 200% |
| COc1ncc(C(F)(F)F)cc1CN[C@H]1[C@H](C(C)(C)C)[C@@H](C(=O)O)N(C(=O)[C@@H]2CCCCO2)[C@H]1c1cccnc1N(C)C [Example I-208] | 1 to 10 µM | 1 to 10 µM | +++ (≥350) | 100 to 200% |
| COc1ccc(C(C)(C)C)cc1CN[C@H]1[C@H](C(C)(C)C)[C@@H](C(=O)O)N(C(=O)[C@@H]2CCCCO2)[C@H]1c1cccnc1OC [Example I-209] | 1 to 10 µM | 1 to 10 µM | +++ (≥350) | > 200% |
| COc1ccc(C23CC(C2)C3)cc1CN[C@H]1[C@H](C(C)(C)C)[C@@H](C(=O)O)N(C(=O)OC(C)C)[C@H]1c1ccccc1 [Example I-210] | 1 to 10 µM | < 1 µM | +++ (≥350) | > 200% |
| COc1cnc(N2CCCC2)cc1CN[C@H]1[C@H](C(C)(C)C)[C@@H](C(=O)O)N(C(=O)C2CCCCC2)[C@H]1c1ccccc1 [Example I-212] | 1 to 10 µM | 1 to 10 µM | ++ (≥150 and <350) | < 100% |
| COc1ccc(C(C)(C)C(F)(F)F)cc1CN[C@H]1[C@H](C(C)(C)C)[C@@H](C(=O)O)N(C(=O)C2CCCCC2)[C@H]1c1ccccc1 [Example I-213] | 1 to 10 µM | 1 to 10 µM | +++ (≥350) | > 200% |
| COc1ncc(C2CCC2)cc1CN[C@H]1[C@H](C(C)(C)C)[C@@H](C(=O)O)N(C(=O)OC(C)C)[C@H]1c1ccccc1 [Example I-214] | 1 to 10 µM | 1 to 10 µM | +++ (≥350) | > 200% |
| COc1ncc(C(F)(F)F)cc1N[C@H]1[C@H](C(C)(C)C)[C@@H](C(=O)O)N(C(=O)[C@@H]2CCCCO2)[C@H]1c1cccnc1N(C)C [Example I-215] | > 10 µM | 1 to 10 µM | ++ (≥150 and <350) | < 100% |
| COc1nc(C(C)(C)C)ccc1CN[C@H]1[C@H](C(C)(C)C)[C@@H](C(=O)O)N(C(=O)OC(C)C)[C@H]1c1ccccc1C(C)C [Example I-216] | < 1 µM | < 1 µM | +++ (≥350) | > 200% |
| COc1ccc(C(C)(C)C)cc1CN[C@H]1[C@H](C(C)(C)C)[C@@H](C(=O)O)N(C(=O)C2CCOC2C(C)C)[C@H]1c1ccccc1 (stereo partly shown) [Example I-218] | 1 to 10 µM | 1 to 10 µM | +++ (≥350) | > 200% |
| CC(C)(C)[C@H]1[C@H](NCC2(c3ccccc3Cl)CCOCC2)[C@H](c2ccccc2)N(C(=O)C2CCCCC2)[C@@H]1C(=O)O [Example I-219] | 1 to 10 µM | 1 to 10 µM | +++ (≥350) | 100 to 200% |
| COc1ccc(C(C)(C)C)cc1CN[C@H]1[C@H](C(C)(C)OC)[C@@H](C(=O)O)N(C(=O)OC(C)C)[C@H]1c1cccnc1N(C)C [Example I-220] | 1 to 10 µM | 1 to 10 µM | +++ (≥350) | > 200% |

| Compound | EC50 [1] | EC50 [2] | Maximum % activity (with co-corrector) | Emax |
| --- | --- | --- | --- | --- |
| COc1ccc(C(C)(C)C)cc1CN[C@H]1[C@H](C(C)(C)C)[C@@H](C(=O)O)N(C(=O)OC(C)C)[C@H]1c1ccccc1F [Example I-221] | 1 to 10 µM | 1 to 10 µM | +++ (≥350) | > 200% |
| Cc1cc(C(F)(F)F)cc(N[C@H]2[C@H](C(C)(C)C)[C@@H](C(=O)O)N(C(=O)C3C4CCCC43)[C@H]2c2cccnc2N(C)C)n1 (stereo partly shown) [Example I-222] | 1 to 10 µM | 1 to 10 µM | ++ (≥150 and <350) | < 100% |
| COc1ccc(C23CC(C2)C3)cc1CN[C@H]1[C@H](C(C)(C)C)[C@@H](C(=O)O)N(C(=O)OC(C)C)[C@H]1c1cccnc1OC [Example I-224] | 1 to 10 µM | 1 to 10 µM | +++ (≥350) | 100 to 200% |
| COc1ccc(C(C)(C)C)cc1CN[C@H]1[C@H](C(C)(C)C)[C@@H](C(=O)O)N(C(=O)C2CCCCC2)[C@H]1c1cccnc1OC(F)F [Example I-225] | 1 to 10 µM | 1 to 10 µM | +++ (≥350) | 100 to 200% |
| COc1ccc(C(C)(C)C)cc1CN[C@H]1[C@H](C23CC(C2)C3)[C@@H](C(=O)O)N(C(=O)OC(C)C)[C@H]1c1ccccc1 [Example I-226] | 1 to 10 µM | 1 to 10 µM | +++ (≥350) | > 200% |
| COc1ccc(C(C)(C)C)cc1CN[C@H]1[C@H](C(C)(C)C)[C@@H](C(=O)O)N(C(=O)OC(C)C)[C@H]1c1cccnc1OC(F)F [Example I-227] | 1 to 10 µM | 1 to 10 µM | +++ (≥350) | 100 to 200% |
| COc1ccc(C23CC(C2)C3)cc1CN[C@H]1[C@H](C(C)(C)C)[C@@H](C(=O)O)N(C(=O)C2CCCCC2)[C@H]1c1cccnc1OC(F)F [Example I-228] | 1 to 10 µM | 1 to 10 µM | +++ (≥350) | 100 to 200% |
| COc1ccc(C(C)(C)C)cc1CN[C@H]1[C@H](C(C)(C)C)[C@@H](C(=O)O)N(C(=O)C2CCCCC2)[C@H]1c1ccccc1OC(F)F [Example I-229] | 1 to 10 µM | < 1 µM | +++ (≥350) | 100 to 200% |
| COc1nc(C(C)(C)C)ccc1CN[C@H]1[C@H](C(C)(C)C)[C@@H](C(=O)O)N(C(=O)C2CCCCC2)[C@H]1c1cccnc1OC [Example I-230] | 1 to 10 µM | 1 to 10 µM | +++ (≥350) | 100 to 200% |
| COc1nc(C(C)(C)C)ccc1CN[C@H]1[C@H](C(C)(C)C)[C@@H](C(=O)O)N(C(=O)[C@@H]2CCCCO2)[C@H]1c1ccccc1F [Example I-231] | 1 to 10 µM | 1 to 10 µM | +++ (≥350) | 100 to 200% |
| COc1ccc(C(C)(C)C)cc1CN[C@H]1[C@H](C(C)(C)C)[C@@H](C(=O)O)N(C(=O)OC(C)(C)C)[C@H]1c1cccnc1OC [Example I-232] | 1 to 10 µM | 1 to 10 µM | +++ (≥350) | > 200% |
| COc1ccc(C(C)(C)C)cc1CN[C@H]1[C@H](C(C)(C)C)[C@@H](C(=O)O)N(C(=O)[C@H](C)c2ccccc2)[C@H]1c1cccnc1N(C)C [Example I-233] | 1 to 10 µM | 1 to 10 µM | +++ (≥350) | 100 to 200% |
| COc1nc(C(C)(C)C)ccc1CN[C@H]1[C@H](C(C)(C)C)[C@@H](C(=O)O)N(C(=O)OC(C)C)[C@H]1c1cccnc1OC [Example I-234] | 1 to 10 µM | < 1 µM | +++ (≥350) | 100 to 200% |
| COc1nc(C(C)(C)C)ccc1CN[C@H]1[C@H](C(C)(C)C)[C@@H](C(=O)O)N(C(=O)[C@@H]2CCCCO2)[C@H]1c1cccnc1N(C)C [Example I-235] | 1 to 10 µM | < 1 µM | +++ (≥350) | 100 to 200% |
| COc1ncc(C2CCC2)cc1CN[C@H]1[C@H](C23CC(C2)C3)[C@@H](C(=O)O)N(C(=O)OC(C)C)[C@H]1c1ccccc1 [Example I-236] | 1 to 10 µM | 1 to 10 µM | +++ (≥350) | 100 to 200% |
| COc1ncc(C2CCC2)cc1CN[C@H]1[C@H](C(C)(C)C)[C@@H](C(=O)O)N(C(=O)C2CCCCC2)[C@H]1c1cccnc1OC [Example I-237] | 1 to 10 µM | 1 to 10 µM | +++ (≥350) | 100 to 200% |
| COc1ccc(C2(C)CCC2)cc1CN[C@H]1[C@H](C(C)(C)C)[C@@H](C(=O)O)N(C(=O)C2CCCCC2)[C@H]1c1cccnc1OC [Example I-238] | 1 to 10 µM | < 1 µM | +++ (≥350) | > 200% |
